Measured values reported in the supplement of paper PMC10307832.

Experiments:
Test in all cases: relative viability (nuclei count vs DMSO), 5 days (fraction); higher = more cells survive
JZL-184 + Palbociclib = compound: C1CN(CCC1C(C2=CC3=C(C=C2)OCO3)(C4=CC5=C(C=C4)OCO5)O)C(=O)OC6=CC=C(C=C6)[N+](=O)[O-] [JZL-184] + CC(=O)c1c(C)c2cnc(Nc3ccc(N4CCNCC4)cn3)nc2n(C2CCCC2)c1=O [Palbociclib] (partner 0.5 µM)
Method in brief: (§1)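 After 5 days of treatment, lung cancer cells in 1536-well plates were fixed and stained in a single step (final 0.05% Triton X-100, 1% formaldehyde, 1 ug/ml Hoechst) and their nuclei counted on 4× images. Treatment had been applied by pin tool the day after seeding as one drug alone or as a fixed anchor-drug dose with five library-drug doses (not always all listed) in √10 steps. Relative viability is the nuclei count of treated wells divided by that of vehicle wells, and values are medians of duplicate plates.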

JZL-184 + Lapatinib = compound: C1CN(CCC1C(C2=CC3=C(C=C2)OCO3)(C4=CC5=C(C=C4)OCO5)O)C(=O)OC6=CC=C(C=C6)[N+](=O)[O-] [JZL-184] + CS(=O)(=O)CCNCc1ccc(-c2ccc3ncnc(Nc4ccc(OCc5cccc(F)c5)c(Cl)c4)c3c2)o1 [Lapatinib] (partner 2 µM)
Method in brief: as §1

JZL-184 + Phenformin = compound: C1CN(CCC1C(C2=CC3=C(C=C2)OCO3)(C4=CC5=C(C=C4)OCO5)O)C(=O)OC6=CC=C(C=C6)[N+](=O)[O-] [JZL-184] + N=C(N)NC(=N)NCCc1ccccc1 [Phenformin] (partner 250 µM)
Method in brief: as §1

JZL-184 + Pemetrexed = compound: C1CN(CCC1C(C2=CC3=C(C=C2)OCO3)(C4=CC5=C(C=C4)OCO5)O)C(=O)OC6=CC=C(C=C6)[N+](=O)[O-] [JZL-184] + Nc1nc2[nH]cc(CCc3ccc(C(=O)N[C@@H](CCC(=O)O)C(=O)O)cc3)c2c(=O)[nH]1 [Pemetrexed] (partner 0.2 µM)
Method in brief: as §1

JZL-184 + Olaparib = compound: C1CN(CCC1C(C2=CC3=C(C=C2)OCO3)(C4=CC5=C(C=C4)OCO5)O)C(=O)OC6=CC=C(C=C6)[N+](=O)[O-] [JZL-184] + O=C(c1cc(Cc2n[nH]c(=O)c3ccccc23)ccc1F)N1CCN(C(=O)C2CC2)CC1 [Olaparib] (partner 8 µM)
Method in brief: as §1

| Cell Line | relative viability (JZL-184 + Palbociclib; first compound 0.04 µM) | relative viability (JZL-184 + Palbociclib; first compound 0.4 µM) | relative viability (JZL-184 + Palbociclib; first compound 1.265 µM) | relative viability (JZL-184 + Palbociclib; first compound 4 µM) | relative viability (JZL-184 + Lapatinib; first compound 0.04 µM) | relative viability (JZL-184 + Lapatinib; first compound 0.4 µM) | relative viability (JZL-184 + Lapatinib; first compound 1.265 µM) | relative viability (JZL-184 + Lapatinib; first compound 4 µM) | relative viability (JZL-184 + Phenformin; first compound 0.04 µM) | relative viability (JZL-184 + Phenformin; first compound 0.4 µM) | relative viability (JZL-184 + Phenformin; first compound 1.265 µM) | relative viability (JZL-184 + Phenformin; first compound 4 µM) | relative viability (JZL-184 + Pemetrexed; first compound 0.04 µM) | relative viability (JZL-184 + Pemetrexed; first compound 0.4 µM) | relative viability (JZL-184 + Pemetrexed; first compound 1.265 µM) | relative viability (JZL-184 + Pemetrexed; first compound 4 µM) | relative viability (JZL-184 + Olaparib; first compound 0.04 µM) | relative viability (JZL-184 + Olaparib; first compound 0.4 µM) | relative viability (JZL-184 + Olaparib; first compound 1.265 µM) | relative viability (JZL-184 + Olaparib; first compound 4 µM) |
| --- | --- | --- | --- | --- | --- | --- | --- | --- | --- | --- | --- | --- | --- | --- | --- | --- | --- | --- | --- | --- |
| PC-14 | 0.659 | 0.49 | 0.517 | 0.519 | 0.39 | 0.316 | 0.325 | 0.327 | 0.756 | 0.473 | 0.72 | 0.504 | 0.126 | 0.128 | 0.15 | 0.114 | 0.251 | 0.223 | 0.233 | 0.219 |
| RERF-LC-KJ | 1.17 | 1.14 | 1.17 | 0.982 | 0.961 | 0.835 | 0.874 | 0.772 | 0.479 | 0.357 | 0.382 | 0.371 | 0.496 | 0.463 | 0.468 | 0.44 | 0.976 | 0.911 | 0.895 | 0.905 |
| SK-LU-1 | 0.387 | 0.393 | 0.433 | 0.405 | 1.21 | 0.814 | 0.962 | 0.822 | 0.528 | 0.504 | 0.677 | 0.564 | 1.04 | 0.887 | 1 | 0.881 | 0.593 | 0.408 | 0.463 | 0.642 |
| SK-MES-1 | 0.372 | 0.311 | 0.316 | 0.297 | 0.424 | 0.434 | 0.43 | 0.415 | 0.736 | 0.64 | 0.688 | 0.615 | 0.9 | 0.872 | 1 | 0.907 | 0.792 | 0.698 | 0.765 | 0.662 |
| SW 1573 | 0.458 | 0.328 | 0.45 | 0.383 | 1.25 | 1.15 | 1.25 | 1.01 | 0.446 | 0.296 | 0.373 | 0.283 | 1.11 | 0.842 | 0.915 | 0.876 | 0.68 | 0.351 | 0.454 | 0.479 |
| UMC-11 | 0.327 | 0.339 | 0.366 | 0.35 | 1.26 | 0.898 | 1.05 | 0.947 | 0.289 | 0.319 | 0.3 | 0.331 | 0.916 | 0.755 | 0.876 | 0.79 | 0.349 | 0.333 | 0.308 | 0.354 |
